The target in the assay is T1, GPR3 (Homo sapiens, UniProt P46089).
T1 construct: host or cells: HEK293A, transient
The experiment in a line: FRET/BRET cAMP biosensor in HEK293A cells cotransfected with GPR3. The format is cell-based. Particulars: for GPR3-dependent change in cAMP: cAMP biosensor, pcDNA vs GPR3 transfected HEK293A. An excerpt:
With the first GPR3 ligands identified by using a conformational readout in our hands, we next wanted to understand whether these compounds could have been detected in a cAMP-based assay, which has been used extensively in the past to screen for GPR3 ligands. We therefore tested rac-VH1/52, VH2/93 and VH3/115 in cells expressing a cAMP biosensor.
3 Effect of rac-VH1/52, VH2/93 and VH3/115 on GPR3-dependent cAMP production. (a–c) Vehicle-corrected BRET changes induced by rac-VH1/52 (a), VH2/93 (b) or VH3/115 (c) in HEK293A cells transiently transfected with a cAMP BRET sensor along with pcDNA or GPR3. […] Statistical significance was tested using Two-Way ANOVA followed by Sidak multiple comparison (*: […]; **: p < 0.01). […]
Plasmids and molecular cloning
The H187-EPAC-FRET sensor7 was kindly provided by K. Jalink (The Netherlands Cancer Institute, Amsterdam, The Nether-lands). The BRET-based cAMP sensor CAMYEL8 was kindly provided by Laura Humphrys (University of Regensburg, Regens-burg, Germany). Plasmids encoding the conformational biosensors α2AAR- and β2AR-HaloTag/Nluc9 and the Gs heterotrimer dissociation sensor10 were previously described. The expression plasmid encoding N-terminally HA-tagged GPR3 (cat. no.
#GPR003TN00) on a pcDNA3.1+ vector was obtained from the cDNA resource center (cdna.org). The Nluc and HaloTag in-serts were amplified with overhanging restriction sites from β2AAR- HaloTag/Nluc and ligated to the full-length C-terminus or inserted into icl3 of GPR3, respectively, to obtain the conformational biosensor GPR3-HaloTag/Nluc. Point mutants of GPR3-HaloTag/Nluc were generated using the GeneArt Site-directed Mutagenesis System (Thermo Fisher Scientific). All con-structs were verified by sequencing (Eurofins genomics).
Poly-D-lysine, polyethylenimin hydrochloride (linear; average Mn 20 000; PEI) , […], LPA , forskolin, NECA and bovine serum albumin (BSA) were obtained from Sigma Aldrich (Merck KGaA). Dulbecco's Modified Eagle's Medium (DMEM), Dul-becco's Phosphate -Buffered Saline (DPBS) and G -418 (Geneticin) were from Gibco. Diphenyleneiodonium chloride (DPI) and AF64394 were purchased from Tocris (Bio -Techne). The TMB (3, 3', 5, 5' tetramethyl benzidine) substrate reagent set was from BioLegend. The Nluc substrate furimazine and the red fluorescen t HaloTag dye, HaloTag® NanoBRET® 618 Ligand, were obtained in a single kit from Promega (cat. no. N1662). D-luciferin-sodium and the S1PR1 agonist III were from Med-ChemExpress. The Rluc substrate coelenterazine 400a was from NanoLight Technology (cat. no. 340 -10). White -wall, white - bottomed 96 -well, black -wall, black bottomed and transparent 96 -well microtiter plates were from Brand.
HEK293A cells were used for transient transfection and grown in Dulbecco’s modified Eagle’s medium (DMEM) supplemented with 2 mM glutamine, 10 % fetal calf serum, streptomycin (0.1 mg/mL), and penicillin (100 U/mL) at 37 °C with 5 % CO2. […]
Transient transfection and plating
Resuspended cells (300,000 cells/mL) were transfected in suspension with a total of 1 μg DNA/mL suspension using PEI (1 mg/ml stock solution; 3 μL PEI solution per μg DNA). For cAMP experiments with FRET- or BRET-based sensors, resuspended cells were transfected with 500 ng pcDNA, wildtype GPR3 or GPR3-HaloTag/Nluc constructs along with 500 ng of the FRET-or BRET-based cAMP sensor per mL cell suspension. For cAMP experiments with GloSensor™ 22F, resuspended cells were transfected with 250 ng pcDNA or GPCR along with 500 ng of a 1:1 mix of pcDNA with the GloSensor™ 22F per mL cell sus-pension. Cells mixed with the transfection reagents were seeded onto poly-D-lysine–precoated, 96-well plates and grown for 48 h at 37 °C with 5 % CO2. Stable α2AAR-, β2AR- or GPR3-HaloTag/Nluc expressing cells were seeded 24 h before the experi-ment at a density of 800,000 cells/mL into white 96-well plates. To monitor changes in BRET in with conformational GPCR […]
(BRET reads energy transfer from a luciferase to a nearby fluorophore.)

Where [1] appears, read: 30 μM pretreatment, cells coexpressing GPR3.

Results on three compounds are retold here after article PMC13195669, “GPR3 Ligands Discovered through Combined Virtual and Conformational Biosensor-Based Screening” (Journal of the American Chemical Society, 2026).

T1 sequence (P46089 whole entry): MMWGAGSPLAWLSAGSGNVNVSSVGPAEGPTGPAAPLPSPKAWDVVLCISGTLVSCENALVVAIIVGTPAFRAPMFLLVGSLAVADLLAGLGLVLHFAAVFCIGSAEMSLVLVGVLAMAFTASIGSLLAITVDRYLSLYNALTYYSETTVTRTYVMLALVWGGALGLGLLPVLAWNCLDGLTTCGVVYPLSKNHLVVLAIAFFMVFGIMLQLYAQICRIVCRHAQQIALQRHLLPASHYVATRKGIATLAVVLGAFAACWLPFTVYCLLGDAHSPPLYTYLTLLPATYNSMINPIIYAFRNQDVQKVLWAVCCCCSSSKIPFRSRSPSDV

For `N=c1n(Cc2ccccc2)c2ccccc2n1CC(O)COc1ccc(Cl)cc1` (stereo not shown) [compound 52], the “GPR3-dependent change in cAMP” value is listed as “induced GPR3-dependent changes in cAMP concentrations”.
`N=c1n(Cc2ccccc2)c2ccccc2n1CC1CC1` [compound 33]: under setting [1], the “effect of pretreatment on AF64394 response in cAMP assay” value was “no effect on the effect of AF64394” and the “effect of pretreatment on DPI-induced cAMP generation” value is given as “inhibited DPI-induced cAMP generation”.
Regarding `Cc1ccc(NC(=O)CN2CCN(C(=O)CCc3ccc(Cl)cc3)CC2)cc1` [compound 115], the “GPR3-dependent change in cAMP” value is recorded as “modulates the conformation of GPR3 but not GPR3-dependent cAMP production”.
